Measured values taken from article PMC6479946 (Molecules, 2019).
Marks after values point to notes of the source that are not given here.

Test: Pharmacokinetic study in rats after oral HAR and MEM alone and in combination (plasma, UPLC-MS/MS, non-compartmental)
Conditions: rat plasma, n = 8, mean ± SD
Description: The analytes were separated on an ACQUITY UPLC BEH C18 column (2.1 mm × 50 mm, 1.7 μm, Waters, Milford, USA). […] The flow rate was 0.3 mL/min. The column and sample-tray temperature were kept at 40 °C and 4 °C, respectively. The injection volume was 5.0 μL using a partial loop with needle over fill mode.
The compound dependent parameters used for analysis were summarized in Supplementary materials Table S1.
A rapid and convenient precipitation method was used to prepare the plasma samples. A 100 μL aliquot of plasma sample was spiked with 100 μL of IS solution and 300 μL of methanol in a 1.5 mL centrifuge tube; subsequently, the mixtures were vortex-mixed for 30.0 s and then centrifuged at 1.5 × 10^4× g for 10 min at 4 °C. A 100 μL aliquot of supernatant was combined with 25.0 μL of 0.1% formic acid water in a clean centrifuge tube and then vortex-mixed for 30 s. A 5.0 μL aliquot of mixture was injected into the UPLC-MS/MS system for analysis.
Fifty-six pathogen-free male adult rats were randomly divided into seven groups with eight rats in each group for pharmacokinetic study. […] One group was intragastrically administered with MEM hydrochloride 5.0 mg/kg dissolved in ultrapure water, namely, MEM group. […] The blood samples were immediately centrifuged at 4.0 × 10^3× g at […] for 10 min, and 100 μL of the supernatant plasma was transferred into another new 1.5 mL centrifuge tube and stored at −20 °C until UPLC-MS/MS analysis.
All standard curves and quantitative data were processed by Agilent Mass Hunter Quantitative Analysis Workstation Software. […] All the pharmacokinetic parameters were processed using the non-compartmental pharmacokinetics data analysis software program PK solutions 2.0^TM (Summit Research Services, USA). […] The AUC(0-t) was obtained by the linear/logarithmic trapezoidal rule, and the area under the plasma concentration versus time curve from zero to infinity (AUC(0-∞)) was calculated by means of the trapezoidal rule with extrapolation to infinity with a terminal elimination rate constant. The Pearson correlation coefficient analysis was processed by IBM SPSS Statistics Version 21. A statistical analysis was performed using analysis of variance with α = 0.05 as the minimal level of significance.

[1] = HOL as metabolite after oral HAR 40.0 mg/kg + MEM 5.0 mg/kg (HAR-M + MEM)
[2] = HOL as metabolite after oral HAR 40.0 mg/kg alone (HAR-M)
[3] = HOL as metabolite after oral HAR 80.0 mg/kg + MEM 5.0 mg/kg (HAR-H + MEM)
[4] = HOL as metabolite after oral HAR 80.0 mg/kg alone (HAR-H)

harmol [HOL]
AUC(0-t) of HOL [1]: 35.5 ± 15.3 ng·h/mL | AUC(0-∞) of HOL [1]: 43.1 ± 21.9 ng·h/mL | Cmax of HOL [1]: 18.0 ± 5.95 ng/mL | Ka of HOL [1]: 1.98 ± 1.72 h⁻¹ | Ke of HOL [1]: 0.312 ± 0.271 h⁻¹ | MRT of HOL [1]: 5.52 ± 2.55 h | T1/2a of HOL [1]: 2.78 ± 4.59 h | T1/2e of HOL [1]: 3.53 ± 2.19 h | T1/2d of HOL [1]: 2.05 ± 1.61 h | Tmax of HOL [1]: 0.229 ± 0.0589 h | AUC(0-t) of HOL [2]: 27.1 ± 10.8 ng·h/mL | AUC(0-∞) of HOL [2]: 29.6 ± 11.3 ng·h/mL | Cmax of HOL [2]: 10.4 ± 2.13 ng/mL | Ka of HOL [2]: 0.808 ± 1.28 h⁻¹ | Ke of HOL [2]: 0.400 ± 0.133 h⁻¹ | MRT of HOL [2]: 4.44 ± 1.78 h | T1/2a of HOL [2]: 2.22 ± 1.67 h | T1/2e of HOL [2]: 1.94 ± 0.712 h | T1/2d of HOL [2]: 1.89 ± 1.07 h | Tmax of HOL [2]: 0.198 ± 0.324 h | AUC(0-t) of HOL [3]: 158 ± 59.9 ^bbb ng*h/mL | AUC(0-∞) of HOL [3]: 327 ± 140 ^bbb ng*h/mL | Cmax of HOL [3]: 40.4 ± 10.9 ^bbb ng/mL | Ka of HOL [3]: 0.864 ± 1.00 h⁻¹ | Ke of HOL [3]: 0.0899 ± 0.0912 ^b /h | MRT of HOL [3]: 23.5 ± 19.3 ^b h | T1/2a of HOL [3]: 2.15 ± 2.05 h | T1/2e of HOL [3]: 17.2 ± 14.7 ^b h | T1/2d of HOL [3]: 3.48 ± 4.35 h | Tmax of HOL [3]: 2.39 ± 3.52 h | AUC(0-t) of HOL [4]: 57.8 ± 19.3 ^aaa ng*h/mL | AUC(0-∞) of HOL [4]: 69.7 ± 23.1 ^aaa ng*h/mL | Cmax of HOL [4]: 32.4 ± 16.5 ^aa ng/mL | Ka of HOL [4]: 1.17 ± 1.96 h⁻¹ | Ke of HOL [4]: 0.226 ± 0.0896 ^aa /h | MRT of HOL [4]: 6.04 ± 2.12 h | T1/2a of HOL [4]: 2.02 ± 1.52 h | T1/2e of HOL [4]: 3.57 ± 1.50 ^a h | T1/2d of HOL [4]: 2.02 ± 1.72 h | Tmax of HOL [4]: 0.271 ± 0.159 h
